Experimental data reported in patent US5468774A, “Tetronic, thiotetronic and tetramic acid derivatives as phospholipase A.sub ” (American Home Products Corporation, priority 1995, dated 1995).

Assays:
5-lipoxygenase = test: Resident murine peritoneal macrophage assay, LTC4 (5-lipoxygenase); format: cell-based, murine (female Swiss Webster mice); settings: for inhibition at 0.5 µM: Peritoneal macrophage
Protocol: (§1) The ability of the compounds of the invention to act as inhibitors of the enzymes 5-lipoxygenase and cyclooxygenase is measured in the resident murine peritoneal macrophage assay.
(§2) Resident peritoneal macrophages are collected from female Swiss Webster mice (49 days old, 20-25 gms, Buckshire) by lavaging with 7-8 ml Hanks Balanced Salt Solution (HBSS) without Ca^++ and Mg^++ (GIBCO). The lavage fluid from several mice is pooled and centrifuged at 4° C. for 10 minutes at 400 xg.
(§3) Residual serum and cellular debris are removed from the monolayers by washing 3x with 2 ml HBSS containing Ca^++ and Mg^++. Macrophages are preincubated for 5 minutes with 1 ml serum-free M199 containing 10 μl dimethyl sulfoxide (DMSO) vehicle or test compound prior to cell activation with zymosan ([…]) or arachidonic acid (AA) (2 μM). After 2 hours, the supernatants are removed and either assayed for LTC4 and PGE2 by radioimmunoassay (RIA) directly or stored at -20° C. In all cases, results are expressed as ng metabolite/4×10^6 cells.
(§4) Raw data (dpm) may be stored directly onto an "Autostart" tape using the HP85 in room C-096. The raw data are converted to ng metabolite/4-10^6cells using the standard curve by a "RIANAL" program (HP85) or a "NONLIN" program (HP9816). Results are then expressed as percent inhibition of zymosan induced, leukotriene or prostaglandin synthesis (control) using the equation: [formula]

Human Synovial PLA2 = molecular target: T1, Human Synovial PLA2 (Homo sapiens, UniProt P14555); test: In vitro isolated phospholipase A2 assay, arachidonic acid release from 3H-AA E. coli substrate, human synovial fluid PLA2; format: biochemical; settings: read-out: % Inhibition at 10 μM HSF (human synovial fluid)
T1 construct: Purified human synovial fluid; from tissue; host or cells: human synovial fluid (purified)
T1 sequence (P14555 21-144): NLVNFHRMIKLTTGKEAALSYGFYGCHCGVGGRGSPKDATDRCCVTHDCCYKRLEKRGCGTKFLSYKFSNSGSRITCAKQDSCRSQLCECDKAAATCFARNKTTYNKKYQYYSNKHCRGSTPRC
Protocol: (§5) The compounds of the invention are tested in an in vitro isolated phospholipase A2 assay to determine the ability of the test compounds to inhibit the release of arachidonic acid from an arachidonic acid-containing substrate by the action of phospholipase A2 enzyme from human and non-human sources.
(§6) Into a 15 mL polypropylene tube are added the following: […]
(§7) ^3 H-AA E. coli substrate^1
(§8) Tris-HCl (0.5M) pH 7.5^3
(§9) PLA2 25 Volume yielding 12%
(§10) *pre-incubate at room temperature 30 min prior to substrate addition.
(§11) ^1 Prepared by adding 2 mL deionized and distilled water to 2 mL
(§12) ^5 Stock 10 mM prepared in dimethyl sulfoxide. Make 1:2 dilution with
(§13) ^6 Two human PLA2 enzymes are used:
b) Purified human synovial fluid.
(§14) Incubate the 100μL reaction mixture for 10 minutes at 37° C. in a shaking water bath. The reaction is terminated by the addition of 2 mL tetrahydrofuran, followed by vortexing. NH2 columns ([…]--Analytichem International) are conditioned with 0.5 mL tetrahydrofuran followed by 0.5 mL tetrahydrofuran/water (2 mL:0.1 mL, v/v).
(§15) The sample is loaded onto the columns and slowly drawn through them. The hydrolyzed arachidonic acid retained in the columns is eluted therefrom with 1 mL tetrahydrofuran/glacial acetic acid (2%). The arachidonic acid is transferred to scintillation vials and quantitated by β-counting analysis. […]

cyclooxygenase = test: Resident murine peritoneal macrophage assay, PGE2 (cyclooxygenase); format: cell-based, murine (female Swiss Webster mice); settings: mouse peritoneal macrophages; for inhibition at 0.5 µM: Peritoneal macrophage
Protocol: as §1
as §2, with “xg. The cell pellet is resuspended in Medium 199 (GIBCO) with HEPES buffer containing 100 μg/ml gentamicin. Two ml of the cell suspension (4×10^6 cells) are then plated on 35 mm culture dishes (Nunc).” for “xg.”
A macrophage monolayer is established after a 1-1.5 hour incubation of the cells at 37° C. in an atmosphere of 95% O2 and 5% CO2. The monolayers are washed 2x with 2 ml HBDSS, containing Ca^++ and Mg^++ after which 2 ml Medium 199 supplemented with 10% freshly thawed heat-inactivated fetal bovine serum and 100 μg/ml gentamicin is added for an overnight incubation.
as §3, §4

[1] = system: Platelet-Activating Factor Biosynthesis in Human Polymorphonuclear Neutrophils; test: Inhibition of platelet-activating factor (PAF) biosynthesis in human polymorphonuclear neutrophils (in vitro phospholipase A2 assay); format: cell-based; settings: Polymorphonuclear neutrophil, A23187 stimulated human PMN
Protocol: (§16) The compounds of the invention are tested in an in vitro phospholipase A2 assay to determine the ability of the compounds to inhibit the biosynthesis of platelet-activating factor and LTB4 in purified human neutrophils.
(§17) A leukocyte enriched blood sample obtained from a healthy donor is procured by leukophoresis using a Haemonetics model 30+ blood processor (Biological Specialties, Inc., Lansdale, Pa.). The top "platelet-rich" layer is removed after a low speed spin (35 xg, 15 min, 25° C.) of the sample. The remaining cell suspension is centrifuged (400 xg, 10 min, 25° C.) to sediment the remaining cells. The supernatant is discarded and the cell pellet resuspended in 120 ml HBSS (without Ca^++ /Mg^++). The cell suspension is subjected to ficoll-hypaque sedimentation (Histopaque 1077, 400 xg, 30 min, 25° C). Contaminating erythrocytes are lysed by hypotonic shock (1 min). The cells are then washed once with 40 ml of HBSS and resuspended with HBSS (without Ca^++ /Mg^++) to a concentration of 2.5×10^7 cells/ml for further use. Greater than 95% purity is obtained, as assessed by microscopic examination.
(§18) One ml of human PMN (2.5×10^7 cells/ml) is incubated with vehicle or drugs (10 μl) for 10 minutes at 30° C. After preincubation, an equal volume of HBSS (1 ml) containing 2.4 mM CaCl2, 6 μM calcium ionophore A23187 and 50 μCi[^3 H]-acetate is then incubated at 30° C. for 15 minutes. An aliquot (100 μl) of the reaction mixture is taken out and mixed with 900 μl of 15% ethanol. LTB4 is extracted by using solid phase extraction on reverse phase C18 columns to remove excess [^3 H]-acetate and PAD. […] The quantity of LTB4 in the sample is obtained from RIA determination. […] [^3 H]-PAF is resolved from other phospholipids by TLC on RPC18 plates with a solvent system of chloroform:methanol:water (2:3:1, v/v/v) and is quantitated using a Berthold automated TLC linear analyzer.
(§19) Data presented are the mean +/- s.d. of the values relative to control A23187 stimulated cells for each experiment assayed in triplicate. Percent inhibition when used is calculated as: […]

[2] = system: LTB4 biosynthesis in human neutrophils; test: Inhibition of LTB4 biosynthesis in purified human neutrophils (in vitro phospholipase A2 assay); format: cell-based; settings: Neutrophil, A23187 stimulated human PMN
Protocol: as §16, §17, §18, §19

Human Platelet PLA2 = molecular target: T2, Human Platelet PLA2 (Homo sapiens, UniProt P14555); test: In vitro isolated phospholipase A2 assay, arachidonic acid release from 3H-AA E. coli substrate, human platelet PLA2; format: biochemical; settings: read-out: % Inhibition at 10 μM HP (human platelet)
T2 construct: Semipurified human platelet acid extract PLA2; from tissue; host or cells: human platelets (semipurified acid extract)
T2 sequence (P14555 21-144): T1 sequence (P14555 21-144)
Protocol: as §5, §6, §7, §8, §9, §10, §11, §12, §13
a) Semipurified human platelet acid extract PLA2 (in 10 Mm sodium
as §14, §15

[3] = 0.5 μM, mouse peritoneal macrophages

| inhibition at 10 µM (Human Synovial PLA2) [%] | inhibition at 10 µM (Human Platelet PLA2) [%] | PGE2 % Inhibition (cyclooxygenase; 0.5 μM) [%] | LTC4 % Inhibition (5-lipoxygenase; [3]) [%] | Compound | IC50 (5-lipoxygenase; reference compounds) [nM] | inhibition at 0.5 µM (cyclooxygenase) [%] | inhibition at 10 µM [1] [%] | inhibition at 10 µM [2] [%] | inhibition at 0.5 µM (5-lipoxygenase; [3]) [%] |
| --- | --- | --- | --- | --- | --- | --- | --- | --- | --- |
|  |  |  |  | CCCCCC#CCC#CCC#CCC#CCCCC(=O)O [ETYA, reference compound] | 440 |  |  |  |  |
| 41.9 | -3.7 |  |  | O=C(CCC1CCCCCCCCCCC1)C1=C(O)COC1=O [Example 1, 3-(3-Cyclododecyl-1-oxopropyl)-4-hydroxy-2(5H)-furanone] |  | 46.7 | 84.3 | 95.1 | 29 |
| 53 | 18.2 |  |  | O=C(CCC1CCCCCCCCCCC1)C1=C(O)CSC1=O [Example 2, 3-(3-cyclododecyl-1-oxopropyl)-4-hydroxy-2(5H)-thiophenone] |  | 97.1 | 79.2 | 69.6 | 76.1 |
|  |  |  |  | CN1CC(O)=C(C(=O)CCC2CCCCCCCCCCC2)C1=O [Example 3, 3-(3-cyclododecyl-1-oxopropyl)-1.5-dihydro-4-hydroxy-1-methyl-1H-pyrrolin-2-one] |  | 75.9 | 64.4 | 90.4 | 66.2 |
|  |  |  |  | O=C(NCCC1CCCCCCCCCCC1)C1=C(O)COC1=O [Example 15, 4-Hydroxy-2-oxo-2,5-dihydro-furan-3-carboxylic acid-2-cyclododecyl-ethylamide] |  | 52 |  |  | 25.9 |
|  |  | 77.0 | 33.0 | O=C(COCC1CCCCCCCCCCC1)C1=C(O)CSC1=O [Example 16] |  |  |  |  |  |
